Reference: patent US8853251B2, “Ester pro-drugs of [3-(1-(1H-imidazol-4-YL)ethyl)-2-methylphenyl] methanol for treating retinal diseases” (Allergan, Inc., priority 2010, dated 2014)

Experiments:
normal DB rabbits = assay: Visual Enhancement Model (sweep visual evoked potential acuity); type: in vivo, rabbit; conditions: pigmented (Dutch-Belted) rabbits, intravenous route, 10-30 minutes post-dose, conscious animals, bilateral recordings
Procedure: Spatial sweep visual evoked potential (sVEP) acuity is assessed with PowerDiva software version 1.8. Recordings were made bilaterally in conscious animals.

[1] = system: blue light model of retinal degeneration in rats; assay: The Blue Light Model of retinal degeneration; type: in vivo, rat; conditions: male Sprague Dawley rats, subcutaneous infusion pumps 1 mg/kg/day starting two days before blue light (4 hours, 6100-6500 lux), OCT at 7 days post exposure
Procedure: Pro-drug iso-Butyric acid 3-[(S)-1-(1H-imidazol-4-yl)-ethyl]-2-methyl-benzyl ester is evaluated in the blue light model of retinal degeneration in rats. The drugs is administered continuously with subcutaneous infusion pumps at a dose of 1 mg/kg/day starting two days before blue light exposure. Twenty 4-month old male Sprague Dawley rats (body weight 470-550 g) were used in this study. The animals were exposed to room light on a 12 hour light/12 hour dark cycle before the experiment. All animals were dark adapted overnight (16-20 hours) before blue light. Under the intensity of 6100-6500 lux, rats were exposed to blue light for 4 hours. After the blue light, rats were placed in the dark for another 3 days before returning to normal 12 hour light/12 hour dark. Ocular Coherence Tomography (OCT) measurement was performed at 7 days post blue light exposure.

SMILES	Spatial sweep visual evoked potential (sVEP) acuity (normal DB rabbits)	retinal thickness measured by OCT after blue light exposure [1]
Cc1c(COC(=O)C(C)C)cccc1[C@H](C)c1c[nH]cn1 [Compound 1, iso-Butyric acid 3-[(S)-1-(1H-imidazol-4-yl)-ethyl]-2-methyl-benzyl ester]	enhances visual acuity	significantly reduced the damage caused by blue light
Brc1c(NC2=NCCN2)ccc2nccnc12 [Brimonidine, reference compound]	–	did not prevent the change in retinal thickness
